Assay results published in patent US5972894A, “Peptides having potassium channel opener activity” (Cytran, Inc., priority 1997, dated 1999).
Residues, ends and D or L forms follow the SMILES beside them.

Key:
Isolated Rat Heart = experiment: Inotropic function of normal isolated rat heart, Langendorff perfusion
From the text: Rat heart specimens were obtained surgically from white random-bred male rats weighing approximately 250 g. The hearts were established in culture using retrograde heart perfusion according to the Langendorff method performed with a standard oxygenated (95% O2 and 5% CO2) Krebs-Henseleit solution through a glass aorta cannula. The retroperfusion pressure forces the aortic valves shut. In this way, the oxygenated solution passed only through the coronary vasculature of the heart such that both ventricles remain effectively empty. Perfusion conditions: An average constant perfusate flow rate of 15 to 25 ml/min was maintained with a constant perfusate pressure of 80 cm H2 O. Pressure Measurements: A latex balloon catheter connected with a pressure transducer ([…], Sweden) was inserted into the left ventricle of the heart to measure parameters of the inotropic function of the heart. The intraventricle pressure variation curve for the left ventricle was recorded with a polygraph. Experimental Protocol: GE and VT served as the test substances. After a 30-minute adaptation of the heart to the organ culture perfusion conditions, a set of basal (control) measurements was taken, as described in (i) through (v) below. […] See GOODMAN […] THE PHARMACOLOGICAL BASIS OF THERAPEUTICS 160 (Goodman et al., eds., 7th ed. 1985), incorporated herein by reference in its entirety for all purposes. Each dose of each respective test or reference substance was tested on four different rat hearts. The inotropic functions of each of the four rat hearts were evaluated by measuring: (i) the systolic pressure in the left ventricle ([…] diastolic pressure in the left ventricle ([…] evolving pressure (Pev. =[…]); (iv) the maximal rate of increase of left ventricle pressure (+dp/dtmax mm Hg/sec); and (v) the maximal rate of decrease of left ventricle pressure (-dp/dtmax mm Hg/sec). In addition, the heart rate (HR) of each heart was determined from the pressure variation recordings made of the left ventricle pressure.

rats = experiment: Early ischemic myocardial arrhythmias after coronary artery ligation; format: in vivo; details: for Number of Ventricular Extrasystoles / Overall Duration of Ventricular Tachycardia: 30 min after coronary occlusion
Description: White random-bred male rats weighing 200 g were given light ether anesthesia and were then immobilized and artificially ventilated. The descending branch of the left coronary artery of each rat was ligated. Immediately following ligation, a test or control substance was administered to each rat through the catheterized femoral vein, and an ECG recording was initiated (standard lead II) and maintained for the next 30 minutes.
GE and VT served as test substances and were administered to animals in the respective test groups at doses of 0.1, 1.0, and 10.0 mg/kg. The β-adrenergic blocking agent, propranolol (Obzidan, Germed, Germany), served as the positive control substance and was administered intravenously to each animal in the positive control group at a dose of 0.5 mg/kg. Physiological saline served as the negative control substance and was administered intravenously to animals in the negative control group. Each dose of each test or control substance was tested separately on a group of nine animals.
The following parameters were evaluated based upon the ECG recordings: (i) the number of ventricular extrasystoles that occurred within a 30-minute observation period following coronary occlusion; (ii) the overall cumulative duration of ventricular tachycardias (i.e., the summation of duration of individual paroxysmal ventricular rhythm disturbances in seconds) occurring within the 30-minute observation period; and (iii) the overall duration (in seconds) of the ventricular fibrillations occurring within the 30-minute observation period. The data were processed electronically and statistical comparisons were made between the values obtained from the animals in the experimental test groups and those in the different respective control groups.

Compound: NCC(=O)N[C@@H](CCC(=O)O)C(=O)O [GE, L-Glycyl-L-Glutamic acid] (H-Gly-Glu-OH)
- effect on inotropic function and heart rate of normal heart (Isolated Rat Heart; 10, 100, 1000 μg): neither GE nor VT had a significant effect
- +dp/dtmax % of Basal Level (Isolated Rat Heart; dose 10 mg (mg = microgram)): 102%
- +dp/dtmax Subst. Level (Isolated Rat Heart; dose 10 mg (mg = microgram)): 1750 mm Hg/sec
- -dp/dtmax % of Basal Level (Isolated Rat Heart; dose 10 mg (mg = microgram)): 94%
- -dp/dtmax Subst. Level (Isolated Rat Heart; dose 10 mg (mg = microgram)): 985 mm Hg/sec
- HR % of Basal Level (Isolated Rat Heart; dose 10 mg (mg = microgram)): 99%
- HR abs, Subst. Level (Isolated Rat Heart; dose 10 mg (mg = microgram)): 202 hb/min
- Pdiast % of Basal Level (Isolated Rat Heart; dose 10 mg (mg = microgram)): 95%
- Pdiast abs, Subst. Level (Isolated Rat Heart; dose 10 mg (mg = microgram)): 9 mm Hg
- Pev % of Basal Level (Isolated Rat Heart; dose 10 mg (mg = microgram)): 102%
- Pev Subst. Level (Isolated Rat Heart; dose 10 mg (mg = microgram)): 94 mm Hg
- Psyst % of Basal Level (Isolated Rat Heart; dose 10 mg (mg = microgram)): 102%
- Psyst abs, Subst. Level (Isolated Rat Heart; dose 10 mg (mg = microgram)): 104 mm Hg
- +dp/dtmax % of Basal Level (Isolated Rat Heart; dose 100 mg (mg = microgram)): 100%
- +dp/dtmax Subst. Level (Isolated Rat Heart; dose 100 mg (mg = microgram)): 1723 mm Hg/sec
- -dp/dtmax % of Basal Level (Isolated Rat Heart; dose 100 mg (mg = microgram)): 99%
- -dp/dtmax Subst. Level (Isolated Rat Heart; dose 100 mg (mg = microgram)): 1055 mm Hg/sec
- HR % of Basal Level (Isolated Rat Heart; dose 100 mg (mg = microgram)): 100%
- HR abs, Subst. Level (Isolated Rat Heart; dose 100 mg (mg = microgram)): 203 hb/min
- Pdiast % of Basal Level (Isolated Rat Heart; dose 100 mg (mg = microgram)): 100%
- Pdiast abs, Subst. Level (Isolated Rat Heart; dose 100 mg (mg = microgram)): 11 mm Hg
- Pev % of Basal Level (Isolated Rat Heart; dose 100 mg (mg = microgram)): 99%
- Pev Subst. Level (Isolated Rat Heart; dose 100 mg (mg = microgram)): 88 mm Hg
- Psyst % of Basal Level (Isolated Rat Heart; dose 100 mg (mg = microgram)): 99%
- Psyst abs, Subst. Level (Isolated Rat Heart; dose 100 mg (mg = microgram)): 99 mm Hg
- +dp/dtmax % of Basal Level (Isolated Rat Heart; dose 1000 mg (mg = microgram)): 94%
- +dp/dtmax Subst. Level (Isolated Rat Heart; dose 1000 mg (mg = microgram)): 1618 mm Hg/sec
- -dp/dtmax % of Basal Level (Isolated Rat Heart; dose 1000 mg (mg = microgram)): 96%
- -dp/dtmax Subst. Level (Isolated Rat Heart; dose 1000 mg (mg = microgram)): 980 mm Hg/sec
- HR % of Basal Level (Isolated Rat Heart; dose 1000 mg (mg = microgram)): 102%
- HR abs, Subst. Level (Isolated Rat Heart; dose 1000 mg (mg = microgram)): 198 hb/min
- Pdiast % of Basal Level (Isolated Rat Heart; dose 1000 mg (mg = microgram)): 100%
- Pdiast abs, Subst. Level (Isolated Rat Heart; dose 1000 mg (mg = microgram)): 10 mm Hg
- Pev % of Basal Level (Isolated Rat Heart; dose 1000 mg (mg = microgram)): 91%
- Pev Subst. Level (Isolated Rat Heart; dose 1000 mg (mg = microgram)): 85 mm Hg
- Psyst % of Basal Level (Isolated Rat Heart; dose 1000 mg (mg = microgram)): 92%
- Psyst abs, Subst. Level (Isolated Rat Heart; dose 1000 mg (mg = microgram)): 94 mm Hg
- Number of Ventricular Extrasystoles (rats; 0.1 mg/kg i.v.): 25.22
- Overall Duration of Ventricular Tachycardia (rats; 0.1 mg/kg i.v.): 38.67 s
- Number of Ventricular Extrasystoles (rats; 1.0 mg/kg i.v.): 116.22
- Overall Duration of Ventricular Tachycardia (rats; 1.0 mg/kg i.v.): 93.17 s
- Number of Ventricular Extrasystoles (rats; 10.0 mg/kg i.v.): 47.78
- Overall Duration of Ventricular Tachycardia (rats; 10.0 mg/kg i.v.): 51.78 s
- effect on overall duration of ventricular tachycardias (rats; all of the tested doses): reduced the overall duration of ventricular tachycardias
